Data: US9884063B2, “Amido-substituted azole compounds” (Bayer Pharma Aktiengesellschaft, priority 2014, dated 2018)

Legend:
TNKS1 [1] = target: T1, TNKS1 (Homo sapiens, UniProt O95271); assay: TNKS1 Assay 1 (TNKS1 Histone Ribosylation Assay Kit, biotin-labeled NAD+); type: biochemical; conditions: chemiluminescent readout, 384 well
T1 sequence (O95271 1-1327): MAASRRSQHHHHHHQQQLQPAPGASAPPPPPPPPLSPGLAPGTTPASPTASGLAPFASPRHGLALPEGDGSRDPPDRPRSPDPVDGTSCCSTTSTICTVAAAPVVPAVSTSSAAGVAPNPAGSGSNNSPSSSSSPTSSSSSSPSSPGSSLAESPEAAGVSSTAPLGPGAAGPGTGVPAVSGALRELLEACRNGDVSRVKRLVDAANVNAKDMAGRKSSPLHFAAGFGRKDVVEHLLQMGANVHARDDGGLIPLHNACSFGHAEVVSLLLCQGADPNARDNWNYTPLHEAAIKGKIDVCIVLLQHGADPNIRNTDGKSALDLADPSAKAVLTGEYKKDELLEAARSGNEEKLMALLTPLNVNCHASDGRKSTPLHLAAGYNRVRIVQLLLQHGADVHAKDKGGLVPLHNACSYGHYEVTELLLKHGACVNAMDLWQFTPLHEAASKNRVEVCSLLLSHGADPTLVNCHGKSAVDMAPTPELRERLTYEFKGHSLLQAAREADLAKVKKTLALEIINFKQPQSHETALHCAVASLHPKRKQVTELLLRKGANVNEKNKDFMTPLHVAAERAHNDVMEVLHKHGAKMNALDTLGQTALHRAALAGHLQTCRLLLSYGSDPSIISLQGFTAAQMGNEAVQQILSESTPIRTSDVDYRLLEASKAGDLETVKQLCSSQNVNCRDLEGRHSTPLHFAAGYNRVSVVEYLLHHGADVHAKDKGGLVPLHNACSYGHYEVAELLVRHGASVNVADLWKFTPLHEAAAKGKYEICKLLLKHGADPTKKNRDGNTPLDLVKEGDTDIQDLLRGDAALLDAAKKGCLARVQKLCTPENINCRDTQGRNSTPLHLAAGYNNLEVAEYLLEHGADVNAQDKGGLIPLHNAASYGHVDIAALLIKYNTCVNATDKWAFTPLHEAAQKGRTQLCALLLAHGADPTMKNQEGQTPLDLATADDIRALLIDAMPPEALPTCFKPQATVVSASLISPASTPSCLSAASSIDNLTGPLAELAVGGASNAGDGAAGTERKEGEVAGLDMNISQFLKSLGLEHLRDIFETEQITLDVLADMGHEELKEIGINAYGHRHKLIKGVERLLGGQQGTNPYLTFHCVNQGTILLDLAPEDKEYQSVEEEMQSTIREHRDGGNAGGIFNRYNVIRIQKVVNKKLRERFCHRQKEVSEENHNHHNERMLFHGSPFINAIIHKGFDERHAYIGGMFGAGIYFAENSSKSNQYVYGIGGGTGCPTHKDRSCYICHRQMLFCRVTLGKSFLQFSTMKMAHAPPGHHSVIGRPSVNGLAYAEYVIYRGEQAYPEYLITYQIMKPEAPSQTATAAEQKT
Experimental: The potency of the compounds according to the invention was assessed by applying an in vitro inhibition assay. The TNKS1 catalyzed NAD^+-dependent ribosylation of a suitable protein substrate was detected using a commercially available biotin/streptavidin binding based assay format [TNKS1 Histone Ribosylation Assay Kit (Biotin-labeled NAD+), Catalog #80579; BPS Bioscience, San Diego, USA]. Here, the incorporation of a biotin-labeled NAD+ during the TNKS1 catalyzed ribosylation reaction was detected with a streptavidin-HRP coupled chemi-luminescent readout. The intensity of the readout signal is proportional to the incorporated NAD^+. Inhibition of TNKS1 leads to a decreased incorporation of NAD^+ and consequently to a lower readout signal intensity. The concentration of a test compound which inhibits the enzyme activity by 50% (corresponds to half of the normed readout signal intensity) is reported as IC50.
The assay was conducted in a 384 well MTP format according to the manufacturer's protocol [bpsbioscience.com/poly-adp-ribose-polymerase/assay-kit/tnks1-histone-ribosylation-assay-kit-biotin-labeled-nad-80579 referencing: Brown, J. A., Marala, R. B. J. Pharmacol. Toxicol. Methods 2002 47:137-41] and using a BMG Pherastar MTP reader [BMG-Labtech, Offenburg, Germany].

TNKS1 [2] = target: T1, TNKS1; assay: Modified TNKS1 Assay 3 (BPS kit #80573, biotin-NAD+, 96 well); type: biochemical; conditions: human TNKS1, BPS kit #80573, 96 well
Method in brief: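 Chemiluminescent assay of TNKS1-catalysed ribosylation of a protein substrate with biotin-labelled NAD+, detected via streptavidin-HRP; run per kit protocol. Inhibition lowers the signal, and IC50 is the compound concentration halving the normalised readout.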

SMILES	IC50 (TNKS1 [1]; Table 1) [nM]	IC50 (TNKS1 [1]; first table) [nM]	IC50 (TNKS1 [2]) [nM]
CNC(=O)c1nc[nH]c1C(=O)Nc1ccc(NC(=O)c2ccncc2Cl)cc1 [Example 6, N^5-{4-[(3-chloroisonicotinoyl)amino]phenyl}-N^4-methyl-1H-imidazole-4,5-dicarboxamide]	50	50	
CNC(=O)c1nc[nH]c1C(=O)Nc1ccc(NC(=O)c2c(C)cc(F)cc2C)cc1 [Example 23, N^5-{4-[(4-fluoro-2,6-dimethylbenzoyl)amino]phenyl}-N^4-methyl-1H-imidazole-4,5-dicarboxamide]	770	770	
CNC(=O)c1nc[nH]c1C(=O)Nc1ccc(NC(=O)c2ccc(N3CCCC3)cc2F)cc1 [Example 3, N^5-(4-{[2-fluoro-4-(pyrrolidin-1-yl)benzoyl]amino}phenyl)-N^4-methyl-1H-imidazole-4,5-dicarboxamide]	> 100000		
CNC(=O)c1nc[nH]c1C(=O)Nc1ccc(NC(=O)c2ccccc2C)cc1 [Example 19, N^4-methyl-N^5-{4-[(2-methylbenzoyl)amino]phenyl}-1H-imidazole-4,5-dicarboxamide]	1700	1700	
CNC(=O)c1nc[nH]c1C(=O)Nc1ccc(NC(=O)c2ccc(F)cc2Cl)cc1 [Example 12, N^5-{4-[(2-chloro-4-fluorobenzoyl)amino]phenyl}-N^4-methyl-1H-imidazole-4,5-dicarboxamide]	20	20	260
CCC(C)NC(=O)c1ncoc1C(=O)Nc1ccc(NC(=O)c2ccc(F)cc2Cl)cc1 (stereo not shown) [Example 7, N^4-sec-butyl-N^5-{4-[(2-chloro-4-fluorobenzoyl)amino]phenyl}-1,3-oxazole-4,5-dicarboxamide]	1300	1300	
CNC(=O)c1nc[nH]c1C(=O)Nc1ccc(NC(=O)c2c(Cl)cccc2Cl)cc1 [Example 26, N^5-{4-[(2,6-dichlorobenzoyl)amino]phenyl}-N^4-methyl-1H-imidazole-4,5-dicarboxamide]	410	400	
O=C(Nc1ccc(NC(=O)c2[nH]cnc2C(=O)NCC(F)(F)F)cc1)c1ccc(F)cc1Cl [Example 30, N^4-{4-[(2-chloro-4-fluorobenzoyl)amino]phenyl}-N^5-(2,2,2-trifluoroethyl)-1H-imidazole-4,5-dicarboxamide]	140	140	400
CNC(=O)c1nc[nH]c1C(=O)Nc1ccc(NC(=O)c2ccc(F)cc2Cl)nc1 [Example 16, N^5-{6-[(2-chloro-4-fluorobenzoyl)amino]pyridin-3-yl}-N^4-methyl-1H-imidazole-4,5-dicarboxamide]	70	70	130
CC(C)NC(=O)c1nc[nH]c1C(=O)Nc1ccc(NC(=O)c2ccc(F)cc2Cl)cc1 [Example 10, N^5-{4-[(2-chloro-4-fluorobenzoyl)amino]phenyl}-N^4-isopropyl-1H-imidazole-4,5-dicarboxamide]	310	310	
CNC(=O)c1nc[nH]c1C(=O)Nc1ccc(NC(=O)c2cccc(Cl)c2Cl)cc1 [Example 1, N^5-{4-[(2,3-dichlorobenzoyl)amino]phenyl}-N^4-methyl-1H-imidazole-4,5-dicarboxamide]	1010	1010	
COC(=O)c1ncoc1C(=O)Nc1ccc(NC(=O)c2ccc(F)cc2Cl)cc1 [Example 14, Methyl 5-({4-[(2-chloro-4-fluorobenzoyl)amino]phenyl}carbamoyl)-1,3-oxazole-4-carboxylate]	420	420	
CNC(=O)c1nc[nH]c1C(=O)Nc1ccc(NC(=O)c2ccccc2Cl)cc1 [Example 27, N^5-{4-[(2-chlorobenzoyl)amino]phenyl}-N^4-methyl-1H-imidazole-4,5-dicarboxamide]	100	100	
